Consider one compound from US11504330B2, “Formulation comprising particles containing a water-swellable or water-soluble polymeric component and a lipid component” (PERORA GMBH, priority 2014, dated 2022).

A short description of this data set: Tryptophan release / dissolution in fasted-state simulated gastric fluid (FaSSGF). It is filed as physicochemical. The note with it: 30 mg powder in 22 mL FaSSGF, 37° C., agitated.

The structures appear in SMILES notation.

Description: FaSSGF was prepared by dissolving 1 g of NaCl (Sigma-Aldrich) in 450 mL of water, adding 30 mg of SIF powder (biorelvant.com), adjusting the pH to 2.0 with 0.1 N HCl (Sigma-Aldrich) and adding water to a final volume of 500 mL.
30 mg of tryptophan powder were suspended in 22 mL FaSSGF at 37° C. and agitated (shaker ST5 from CAT, Germany). Aliquots were removed at time intervals of 5 min, and tryptophan concentration was quantified using absorption measurement at a wavelength of 280 nm in a NanoDrop® 2000 device (Thermo Scientific, USA).

With `N[C@@H](Cc1c[nH]c2ccccc12)C(=O)O` [Tryptophan, L-Tryptophan], the “time after which quantitatively dissolved” value is 10 min.
